Results as given in PubChem BioAssay (NCI).
Several values for one entry are separate records, joined by “and”; a condition that tells them apart may be missing. Equal values may be shown once.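 Briefly, cells in 96-well plates were exposed to five compound concentrations for 48 h, and endpoints were estimated by linear interpolation. At the GI50, growth is halved. TGI: total growth inhibition.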

Tests used:
Assay in all cases: growth of human tumour cells (NCI), 48 h
[1] = test system: 786-0 renal
[2] = test system: A498 renal
[3] = test system: A549 NSCLC
[4] = test system: ACHN renal
[5] = test system: BT-549 breast
[6] = test system: CAKI-1 renal
[7] = test system: CCRF-CEM leukemia
[8] = test system: COLO 205 colon
[9] = test system: DU-145 prostate
[10] = test system: HCC-2998 colon
[11] = test system: HCT-116 colon
[12] = test system: HCT-15 colon
[13] = test system: HL-60(TB) leukemia
[14] = test system: HOP-62 NSCLC
[15] = test system: HOP-92 NSCLC
[16] = test system: HS 578T breast
[17] = test system: HT29 colon
[18] = test system: IGROV1 ovarian
[19] = test system: K-562 leukemia
[20] = test system: KM12 colon
[21] = test system: LOX IMVI melanoma
[22] = test system: M14 melanoma
[23] = test system: MALME-3M melanoma
[24] = test system: MCF7 breast
[25] = test system: MDA-MB-231 breast
[26] = test system: MDA-MB-435
[27] = test system: MOLT-4 leukemia
[28] = test system: NCI-H226 lung
[29] = test system: NCI-H23 lung
[30] = test system: NCI-H460 lung
[31] = test system: NCI-H522 lung
[32] = test system: NCI/ADR-RES ovarian
[33] = test system: OVCAR-3 ovarian
[34] = test system: OVCAR-4 ovarian
[35] = test system: OVCAR-5 ovarian
[36] = test system: OVCAR-8 ovarian
[37] = test system: PC-3 prostate
[38] = test system: RPMI-8226 leukemia
[39] = test system: RXF 393 renal
[40] = test system: SF-268 CNS
[41] = test system: SF-295 CNS
[42] = test system: SF-539 CNS
[43] = test system: SK-MEL-2 melanoma
[44] = test system: SK-MEL-28 melanoma
[45] = test system: SK-MEL-5 melanoma
[46] = test system: SK-OV-3 ovarian
[47] = test system: SN12C renal
[48] = test system: SNB-19 CNS
[49] = test system: SNB-75 CNS
[50] = test system: SR leukemia
[51] = test system: SW-620 colon
[52] = test system: T-47D breast
[53] = test system: TK-10 renal
[54] = test system: U251 CNS
[55] = test system: UACC-257 melanoma
[56] = test system: UACC-62 melanoma
[57] = test system: UO-31 renal

## CCCCCc1c(C)[nH]c(/C=C2\N=C(c3ccc[nH]3)C=C2Oc2ccccc2)c1C
[1]
  GI50: 17.2 nM and 11.8 nM
  TGI: 43.9 nM and 45.7 nM
[2]
  GI50: 16.1 nM and 12.7 nM
  TGI: 69 nM and 50.8 nM
[3]
  GI50: 22 nM and 11.7 nM
  TGI: 56.9 nM and 40.1 nM
[4]
  GI50: 17.3 nM
  TGI: 111 nM
[5]
  GI50: 40.2 nM and 28.3 nM
  TGI: 538 nM and 1050 nM
[6]
  GI50: 23.3 nM
  TGI: 55.8 nM and 40.4 nM
[7]
  GI50: 9.49 nM
  TGI: 1210 nM and 2160 nM
[8]
  GI50: 30.5 nM
  TGI: 193 nM and 49.2 nM
[9]
  GI50: 17.7 nM
  TGI: 129 nM and 104 nM
[10]
  GI50: 17.1 nM
  TGI: 217 nM and 1000 nM
[11]
  GI50: 22.8 nM
  TGI: 129 nM
[12]
  GI50: 19.6 nM
  TGI: 79.8 nM and 41.3 nM
[13]
  GI50: 38.4 nM and 15 nM
  TGI: 343 nM and 65.6 nM
[14]
  GI50: 32.2 nM and 27.2 nM
  TGI: 1890 nM and 1180 nM
[15]
  GI50: 13.8 nM
  TGI: 57.7 nM and 32.6 nM
[16]
  GI50: 21.3 nM and 11.1 nM
  TGI: 92.5 nM and 48.7 nM
[17]
  GI50: 22.6 nM
  TGI: 1370 nM and 1300 nM
[18]
  GI50: 39.1 nM and 24.4 nM
  TGI: 1490 nM and 1230 nM
[19]
  GI50: 26.3 nM
  TGI: 3410 nM
[20]
  GI50: 11.3 nM
  TGI: 49.4 nM and 13.8 nM
[21]
  GI50: 14.3 nM
  TGI: 31.2 nM
[22]
  GI50: 21.3 nM and 10.3 nM
  TGI: 50.4 nM and 32.2 nM
[23]
  GI50: 42.4 nM and 28.6 nM
  TGI: 204 nM and 115 nM
[24]
  GI50: 32.6 nM
  TGI: 442 nM and 1050 nM
[25]
  GI50: 5.56 nM
  TGI: 29.5 nM and 18.1 nM
[26]
  GI50: 21.8 nM
  TGI: 58 nM
[27]
  GI50: 25.4 nM and 13 nM
  TGI: 355 nM and 78.3 nM
[28]
  GI50: 19.1 nM and 74.5 nM
[29]
  GI50: 29.9 nM and 16 nM
  TGI: 668 nM and 387 nM
[30]
  GI50: 23.1 nM
  TGI: 1160 nM and 1050 nM
[31]
  GI50: 18.2 nM and 18.1 nM
  TGI: 101 nM and 168 nM
[32]
  GI50: 48.6 nM and 27.8 nM
  TGI: 255 nM and 174 nM
[33]
  GI50: 19.1 nM and 12.2 nM
  TGI: 64.2 nM and 40.4 nM
[34]
  GI50: 11.3 nM
  TGI: 265 nM and 1220 nM
[35]
  GI50: 26.2 nM and 10.9 nM
  TGI: 1070 nM and 377 nM
[36]
  GI50: 27.7 nM and 15 nM
  TGI: 138 nM and 56.7 nM
[37]
  GI50: 30.6 nM
  TGI: 1220 nM and 166 nM
[38]
  GI50: 22.2 nM
  TGI: 187 nM and 182 nM
[39]
  GI50: 17.2 nM and 12.3 nM
  TGI: 157 nM and 54.6 nM
[40]
  GI50: 23.4 nM
  TGI: 1240 nM and 1000 nM
[41]
  GI50: 24.4 nM
  TGI: 106 nM
[42]
  GI50: 24.2 nM and 11.3 nM
  TGI: 85.6 nM and 38.7 nM
[43]
  GI50: 17.9 nM and 13.9 nM
  TGI: 40.2 nM and 32.9 nM
[44]
  GI50: 39.8 nM and 21.1 nM
  TGI: 192 nM and 101 nM
[45]
  GI50: 16.7 nM and 10.9 nM
  TGI: 34 nM and 24 nM
[46]
  GI50: 56.5 nM and 30.9 nM
  TGI: 671 nM and 628 nM
[47]
  GI50: 36.3 nM and 18 nM
  TGI: 232 nM and 144 nM
[48]
  GI50: 58.2 nM and 38.7 nM
  TGI: 1460 nM and 1440 nM
[49]
  GI50: 24.6 nM and 17.5 nM
  TGI: 71.9 nM and 55.9 nM
[50]
  GI50: 11.7 nM
[51]
  GI50: 24.8 nM
[52]
  GI50: 21.1 nM and 14.7 nM
[53]
  GI50: 44.6 nM and 23.4 nM
  TGI: 448 nM and 152 nM
[54]
  GI50: 19 nM
  TGI: 104 nM and 27.9 nM
[55]
  GI50: 45.4 nM and 30 nM
  TGI: 354 nM and 233 nM
[56]
  GI50: 16.1 nM and 11.1 nM
  TGI: 31.1 nM and 27.4 nM
[57]
  GI50: 25.1 nM and 10.4 nM
  TGI: 109 nM and 24 nM
